The values below come from US12661338B2, “Heterocyclic compounds as modulators of beta-catenin / TCF4 interaction” (AGENCY FOR SCIENCE, TECHNOLOGY AND RESEARCH, priority 2019, dated 2026).

The subject of assay [1] is STF cells. Briefly: Viability (toxicity) of STF reporter cells, CCK-8. Format: cell-based. To be noted: Table 3; STF reporter cell line. On the procedure:
The Wnt STF reporter cells were seeded as 20,000 cells in 100 μL culture medium per well in 96-well plates (Corning cat. #3903, Falcon cat. #353072). The next day, 5-fold dilutions of the compounds in DMSO were added to the cells at a final concentration of 1% DMSO. The cells were also stimulated with 500 ng/mL recombinant human Wnt3A (RnD systems, cat. #5036-WN-010). After 24 hr incubation, the viability of the cells was determined with cell counting kit-8 (CCK-8, Dojindo cat. #CK04) cell viability reagent according to the manufacturer's protocol while the TOPFlash reporter activity was determined with Steady-Glo luciferase reagent.
(§1) The average signal from DMSO treated wells was calculated for each plate, and the signal from each treatment well was normalized against the average DMSO signal from the respective plate. The normalized values were plotted against the concentrations tested using GraphPad Prism 5, and the EC50 values were determined through either three- or four-parameter nonlinear regression.

For assay [2], the system named is CRC1489. Briefly: Viability of primary patient-derived colorectal cancer cell line. Type of assay: cell-based.
Assay [3] addresses T1, β-cat / GST-TCF4 N-terminal domain interaction (Homo sapiens, UniProt P35222).
T1 construct: His-tagged human β-cat (134-668); made in house; host or cells: E. coli BL21(DE3)
Briefly: SPR inhibition of β-cat-TCF4 interaction. Type of assay: binding. To be noted: SPR competition, 50 nM β-cat pre-incubated 15 min, n=2; read-out: IC50 inhibition of interaction between β-cat and TCF4. The method, then: BL21(DE3) cells harboring pET-28 β-cat expression vector of His-tagged human β-cat (134-668) were cultured at 37° C. until OD600=0.6-0.8. The cells were then induced with 500 μM isopropyl-β-D-thiogalactopyranoside (IPTG) for 6-8 hr at 23° C. Cells were lysed by sonication in lysis buffer containing 20 mM Tris (pH 8.8), 250 mM NaCl, 2 mM DTT, 5% glycerol, 0.1% Triton X-100, and cOmplete protease inhibitor cocktail (EDTA free, Roche cat. #11873580001). The lysate was incubated with Ni-NTA agarose beads (Qiagen cat. #30210) at 4° C. for 1 hr, and the beads were then washed with lysis buffer containing 20 mM imidazole. Bound protein was eluted with buffer containing 20 mM Tris (pH 8.8), 250 mM NaCl, 0.5 mM tris(2-carboxyethyl)phosphine (TCEP), 5% glycerol, and 250 mM imidazole.
GST-tagged TCF4 N-terminal domain was expressed similarly in BL21(DE3) cells, induced for 2-4 hr at 23° C. with IPTG, and purified from glutathione agarose beads (Pierce cat. #16100) using buffer containing 20 mM Tris (pH 8.8), 250 mM NaCl, 0.5 mM TCEP, 5% glycerol, and 10 mM reduced glutathione.
GST-tag TCF4 N-terminal domain (31 kDa, >90% pure based on SDS-PAGE) was immobilized on a CM5 series S sensor chip using amine-coupling chemistry. […]

Assay [4] concerns Hippo pathway TEAD reporter cells. Description: Hippo signalling TEAD reporter dose response. To be noted: 24 hr, inhibition of the Hippo pathway, read-out: IC50 Hippo. Type of assay: cell-based. On the procedure:
The Hippo TEAD reporter cells were seeded as 100,000 cells in 100 μL assay medium per well in 96-well plates (Corning cat. #3903, Falcon cat. #353072). The assay medium consists of the growth medium without G-418. The next day, 5-fold dilutions of the compounds in DMSO were added to the cells at a final concentration of 1% DMSO. After 24 hr incubation, the viability of the cells was determined with CCK-8 cell viability reagent while the luciferase reporter activity was determined with Steady-Glo luciferase reagent.
as §1

Assay [5] relates to HCT116 cells. Description: Colony formation assay. To be noted: HCT116, 30 μM, 7 days. Type of assay: cell-based. The method, then: FIG. 4 depicts the inhibit growth by hit compounds and their effects on stemness of Wnt driven cells. (FIG. 4A) Growth curves of HCT116 cells treated daily with compounds at 10 μM. One-way repeated measures ANOVA with Dunnett's multiple comparison test was carried out to determine the significance between compound treatment and DMSO control. *P<0.05, ***P<0.001. (FIG. 4B) Effects of hit compounds on colony formation of HCT116 cells. HCT116 cells were grown in 6-well plates and treated with either DMSO or the compounds at 30 μM for 7 days, following which the cells were fixed and stained with crystal violet. The number of colonies obtained were counted. Two-tailed Student's t-test was carried out between compound treatment and DMSO control. ***P<0.001. (FIG. 4C) Effects of hit compounds on spheroid formation of HCT116 cells. HCT116 cells were grown in ultra-low attachment 96-well plates and treated with either DMSO or the compounds at 30 µM for 14 days, following which the number of spheroids ≥200 μm in size was determined. Two-tailed Student's t-test was carried out between compound treatment and DMSO control. ***P<0.001, **P<0.01. Scale bar represents 1 mm. (FIG. 4D) NSG mice xenografted with HCT116 cells were treated with vehicle control (n=6) or 50 mg/kg GB1874 (n=6) via i.p. every other day for 2 weeks. Tumor volumes were monitored over time. […]

The test system of assay [6] is Wnt target genes in HCT116 CRC cells. Briefly: Expression of beta-catenin (CTNNB1) and Wnt target genes in HCT116 CRC cells. Type of assay: cell-based. On the procedure: The effects of the GB1874 analogues were tested on the expression of Wnt target genes in HCT116 CRC cells.
Assay [7] concerns CRC1707. Description: Viability of primary patient-derived colorectal cancer cell line. Type of assay: cell-based.
In assay [8] the test system is CRC2255. Described as above. Type of assay: cell-based.
The subject of assay [9] is CRC2001. Described as above. Type of assay: cell-based.
The test system of assay [10] is CRC1671. The description is as above. Format: cell-based.
For assay [11], the system named is CRC2440. The assay is described as above. Type of assay: cell-based.
Assay [12] relates to CRC1775. Described as above. Type of assay: cell-based.

T1 sequence (P35222 134-668): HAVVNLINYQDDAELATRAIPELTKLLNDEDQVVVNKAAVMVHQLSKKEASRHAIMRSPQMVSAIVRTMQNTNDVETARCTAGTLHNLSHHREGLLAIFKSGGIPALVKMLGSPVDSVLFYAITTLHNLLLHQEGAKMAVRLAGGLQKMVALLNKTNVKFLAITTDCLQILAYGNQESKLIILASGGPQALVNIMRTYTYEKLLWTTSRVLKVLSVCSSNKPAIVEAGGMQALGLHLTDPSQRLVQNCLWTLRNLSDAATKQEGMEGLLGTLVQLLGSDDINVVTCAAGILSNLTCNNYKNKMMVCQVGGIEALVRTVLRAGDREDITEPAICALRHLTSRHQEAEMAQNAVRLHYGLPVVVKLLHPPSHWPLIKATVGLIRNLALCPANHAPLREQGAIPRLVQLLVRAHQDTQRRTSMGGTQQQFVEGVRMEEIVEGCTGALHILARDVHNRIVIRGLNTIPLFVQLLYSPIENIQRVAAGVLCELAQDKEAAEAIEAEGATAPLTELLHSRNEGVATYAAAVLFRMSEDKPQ

Usually IC50 stands for the concentration needed to halve the response being measured. As usually defined, the EC50 is the concentration that produces a half-maximal response. Regarding `CCc1ccc(OCc2nnc(SC3CCCC3=O)n2C(C)c2ccccc2)cc1` (stereo not shown) [GB1874], the IC50 is 66 µM in assay [1], 25 ± 8 µM in assay [3] and above 100 µM in [4]. Besides, the concentration giving a half-maximal response (EC50) in [2] worked out at 41 µM; in assay [7], 19 µM; in [8] it was 20 µM; in [9], 25 µM; in [10], 30 µM; in assay [11], 16 µM. For the same compound, in [12], the EC50 turned out to be 74 µM. Moreover, the colony forming efficiency entry in assay [5] is on record as “markedly reduce survival of the cancer stem-like cells”. The “beta-catenin (CTNNB1) gene expression” value in assay [6] is on record as “lesser effect”. The “expression of Wnt target genes AXIN2, BIRC5, BMP4, CCND1” value in assay [6] is reported as “potently inhibit Wnt target genes”.
